According to patent US10722501B2 (BAYER AKTIENGESELLSCHAFT, priority 2016, dated 2020):

These molecules were tested against T1, recombinant full-length human prolyl endopeptidase (PREP) (Homo sapiens, UniProt P48147) (assay: Biochemical human prolyl endopeptidase (PREP) assay with fluorescently labelled substrate). Conditions: substrate Z-Gly-Pro-AMC 50 μM, 32° C., 60 min; some as mean values from multiple independent determinations.
T1 construct: To recombinant full-length human prolyl endopeptidase (PREP, R&D-Systems, 4308-SE); purchased R&D-Systems 4308-SE
T1 sequence (P48147 1-710): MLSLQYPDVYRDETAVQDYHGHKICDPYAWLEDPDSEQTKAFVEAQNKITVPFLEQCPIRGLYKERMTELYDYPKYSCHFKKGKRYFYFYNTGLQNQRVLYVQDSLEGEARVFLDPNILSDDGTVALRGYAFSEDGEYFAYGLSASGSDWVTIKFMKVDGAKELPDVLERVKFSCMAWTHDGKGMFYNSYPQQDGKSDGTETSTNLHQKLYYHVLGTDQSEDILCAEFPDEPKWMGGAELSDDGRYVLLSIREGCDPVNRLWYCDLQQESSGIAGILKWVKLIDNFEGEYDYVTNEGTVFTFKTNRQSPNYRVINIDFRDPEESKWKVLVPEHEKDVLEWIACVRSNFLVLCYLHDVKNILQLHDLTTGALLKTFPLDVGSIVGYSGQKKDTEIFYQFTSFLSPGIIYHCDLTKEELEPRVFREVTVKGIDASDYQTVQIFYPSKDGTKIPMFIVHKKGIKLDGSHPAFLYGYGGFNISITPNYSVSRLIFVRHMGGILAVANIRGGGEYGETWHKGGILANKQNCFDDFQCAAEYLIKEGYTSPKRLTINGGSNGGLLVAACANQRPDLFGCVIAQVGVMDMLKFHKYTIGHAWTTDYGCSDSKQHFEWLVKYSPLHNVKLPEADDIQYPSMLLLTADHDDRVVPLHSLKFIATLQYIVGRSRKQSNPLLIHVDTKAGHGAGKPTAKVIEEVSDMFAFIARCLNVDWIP
Description: B-1 Biochemical Human Prolyl Endopeptidase (PREP) Assay for Identification of Inhibitors of PREP Activity Using a Fluorescently Labelled Substrate Principle of the Assay:
The enzymatic conversion of the fluorescent peptide substrate was observed on the basis of the measurement of the fluorescence intensity. The enzyme activity was determined by the ascertaining of the initial slope in the increase in fluorescence. Compounds that inhibit PREP were identified on the basis of the decrease in the initial slope compared to a reaction mixture without test compound.
Determination of Activity:
IC50 values were determined by the plotting of the percentage PREP activity against the concentration of the test substance by interpolation.
To recombinant full-length human prolyl endopeptidase (PREP, R&D-Systems, 4308-SE; final concentration, for example, 0.4 nM, volume: 25 μl) in reaction buffer (50 mM Tris-HCl, pH 7.5; 150 mM NaCl; 0.13% BSA, 5 mM EDTA, 3 mM GSH, 0.005% Brij-35) was added a test compound (in DMSO, in an appropriate final concentration range from 1 nM to 30 μM, volume: 1 μl) in a well of a 384-well microtitre plate. The reaction was initiated by adding the substrate Z-Gly-Pro-AMC (final concentration 50 μM; Z=carboxybenzyl; AMC=7-amino-4-methylcoumarin, volume: 25 μl). The progress of the PREP reaction was observed by measuring the fluorescence intensity in a Tecan SAFIRE II plate spectrophotometer at 32° C. over a period of 60 min (excitation wavelength: 360 nm, emission wavelength: 465 nm).
Table B-1 below collates the IC50 values thus obtained from the human prolyl endopeptidase assay for individual working examples of the invention (some as mean values from multiple independent individual determinations).

Row | Compound | IC50 [nM]
1 | CC1Cc2nn(Cc3ccc(C(F)(F)F)nc3)c(=O)n2C(C(=O)N2CC(F)C2)C1 (racemic) [Example 341, (5RS,7RS)-5-[(3-Fluoroazetidin-1-yl)carbonyl]-7-methyl-2-{[6-(trifluoromethyl)pyridin-3-yl]methyl}-5,6,7,8-tetrahydro[1,2,4]triazolo[4,3-a]pyridin-3(2H)-one] | 3.7
2 | Cc1ccc(Cn2nc3n(c2=O)[C@H](C(=O)N2CCC4CC42)CCC3)cc1 (single isomer, unassigned) [Example 189] | 34
3 | O=C([C@@H]1CCCc2nn(Cc3cncc(Cl)c3)c(=O)n21)N1CCC(F)(F)C1 [Example 435, (5S)-2-[(5-Chloropyridin-3-yl)methyl]-5-[(3,3-difluoropyrrolidin-1-yl)carbonyl]-5,6,7,8-tetrahydro[1,2,4]triazolo[4,3-a]pyridin-3(2H)-one] | 2.65
4 | Cc1noc(-c2ccc(Cn3nc4n(c3=O)C(C(=O)N3CCCC3)CCC4)cc2)n1 (racemic) [Example 9, (5RS)-2-[4-(3-Methyl-1,2,4-oxadiazol-5-yl)benzyl]-5-(pyrrolidin-1-ylcarbonyl)-5,6,7,8-tetrahydro[1,2,4]triazolo[4,3-a]pyridin-3(2H)-one] | 39
5 | O=C([C@@H]1CCCc2nn(Cc3ccc(C(F)(F)F)nc3)c(=O)n21)N1CC(F)C1 [Example 429, (5S)-5-[(3-Fluoroazetidin-1-yl)carbonyl]-2-{[6-(trifluoromethyl)pyridin-3-yl]methyl}-5,6,7,8-tetrahydro[1,2,4]triazolo[4,3-a]pyridin-3(2H)-one] | 3.7
6 | O=C(C1C(C(F)(F)F)CCc2nn(Cc3ccc(Cl)cn3)c(=O)n21)N1CC(F)C1 (single isomer, unassigned) [Example 311, (5RS,6RS)-2-[(5-Chloropyridin-2-yl)methyl]-5-[(3-fluoroazetidin-1-yl)carbonyl]-6-(trifluoromethyl)-5,6,7,8-tetrahydro[1,2,4]triazolo[4,3-a]pyridin-3(2H)-one] | 30
7 | O=C([C@@H]1CCCc2nn(Cc3cccc(C(F)(F)F)n3)c(=O)n21)N1CC(F)C1 [Example 369, (5S)-5-[(3-Fluoroazetidin-1-yl)carbonyl]-2-{[6-(trifluoromethyl)pyridin-2-yl]methyl}-5,6,7,8-tetrahydro[1,2,4]triazolo[4,3-a]pyridin-3(2H)-one] | 13
8 | CC(c1ccc(C(F)(F)F)nc1)n1nc2n(c1=O)[C@H](C(=O)N1C[C@@H](F)[C@@H](F)C1)CCC2 (single isomer, unassigned) [Example 218] | 3.3
9 | Cc1ccc(Cn2nc3n(c2=O)C(C(=O)N2CCCC2)CC(C(F)(F)F)C3)cc1 (single isomer, unassigned) [Example 225, (5RS,7RS)-2-(4-Methylbenzyl)-5-(pyrrolidin-1-ylcarbonyl)-7-(trifluoromethyl)-5,6,7,8-tetrahydro[1,2,4]triazolo[4,3-a]pyridin-3(2H)-one] | 0.23
10 | O=C([C@@H]1CCCc2nn(Cc3ccnc(C(F)(F)F)c3F)c(=O)n21)N1CC(F)C1 [Example 483, (5S)-5-[(3-Fluoroazetidin-1-yl)carbonyl]-2-{[3-fluoro-2-(trifluoromethyl)pyridin-4-yl]methyl}-5,6,7,8-tetrahydro[1,2,4]triazolo[4,3-a]pyridin-3(2H)-one] | 2.1
11 | O=C([C@@H]1CCCc2nn(CC3(c4ccc(F)cc4)CC3)c(=O)n21)N1CCC(F)(F)C1 [Example 353, (5S)-5-[(3,3-Difluoropyrrolidin-1-yl)carbonyl]-2-{[1-(4-fluorophenyl)cyclopropyl]methyl}-5,6,7,8-tetrahydro[1,2,4]triazolo[4,3-a]pyridin-3(2H)-one] | 2.3
12 | COc1ccc(Cn2nc3n(c2=O)[C@H](C(=O)N2CC[C@H](F)C2)CCC3)cn1 [Example 430, (5S)-5-{[(3S)-3-Fluoropyrrolidin-1-yl]carbonyl}-2-[(6-methoxypyridin-3-yl)methyl]-5,6,7,8-tetrahydro[1,2,4]triazolo[4,3-a]pyridin-3(2H)-one] | 1.1
13 | O=C(C1CCc2nn(Cc3ccc(Cl)nc3)c(=O)n21)N1C[C@@H](F)[C@@H](F)C1 (mixture of isomers) [Example 172, (5RS)-2-[(6-Chloropyridin-3-yl)methyl]-5-{[(3R,4S)-3,4-difluoropyrrolidin-1-yl]carbonyl}-2,5,6,7-tetrahydro-3H-pyrrolo[2,1-c][1,2,4]triazol-3-one] | 6.3
14 | CC1Cc2nn(Cc3ccc(C(F)(F)F)nc3)c(=O)n2C(C(=O)N2CCC(F)(F)C2)C1 (racemic) [Example 332, (5RS,7RS)-5-[(3,3-Difluoropyrrolidin-1-yl)carbonyl]-7-methyl-2-{[6-(trifluoromethyl)pyridin-3-yl]methyl}-5,6,7,8-tetrahydro[1,2,4]triazolo[4,3-a]pyridin-3(2H)-one] | 3.9
15 | O=C(C1C(C(F)(F)F)CCc2nn(Cc3ccc(C(F)(F)F)nc3)c(=O)n21)N1CC[C@H](F)C1 (single isomer, unassigned) [Example 286] | 98.5
16 | O=C([C@@H]1CCCc2nn(Cc3ncc(C(F)(F)F)cc3Cl)c(=O)n21)N1CC[C@@H](F)C1 [Example 401, (5S)-2-{[3-Chloro-5-(trifluoromethyl)pyridin-2-yl]methyl}-5-{[(3R)-3-fluoropyrrolidin-1-yl]carbonyl}-5,6,7,8-tetrahydro[1,2,4]triazolo[4,3-a]pyridin-3(2H)-one] | 3.4
17 | O=C([C@@H]1CCCc2nn(Cc3ccnc(C(F)(F)F)c3F)c(=O)n21)N1CC[C@@H](F)C1 [Example 478, (5S)-5-{[(3R)-3-Fluoropyrrolidin-1-yl]carbonyl}-2-{[3-fluoro-2-(trifluoromethyl)pyridin-4-yl]methyl}-5,6,7,8-tetrahydro[1,2,4]triazolo[4,3-a]pyridin-3(2H)-one] | 2.65
18 | O=C([C@@H]1CCCc2nn(Cc3ccc(F)c(F)c3)c(=O)n21)N1CC(F)C1 [Example 469, (5S)-2-(3,4-Difluorobenzyl)-5-[(3-fluoroazetidin-1-yl)carbonyl]-5,6,7,8-tetrahydro[1,2,4]triazolo[4,3-a]pyridin-3(2H)-one] | 0.795
19 | COc1ccc(Cn2nc3n(c2=O)[C@H](C(=O)N2CCCC2)CCC3)cn1 [Example 538, (5S)-2-[(6-Methoxypyridin-3-yl)methyl]-5-(pyrrolidin-1-ylcarbonyl)-5,6,7,8-tetrahydro[1,2,4]triazolo[4,3-a]pyridin-3(2H)-one] | 0.82
20 | O=C([C@@H]1CCCc2nn(Cc3ccc(C(F)(F)F)nc3)c(=O)n21)N1CC2CC1C2 [Example 199, (5S)-5-(2-Azabicyclo[2.1.1]hex-2-ylcarbonyl)-2-{[6-(trifluoromethyl)pyridin-3-yl]methyl}-5,6,7,8-tetrahydro[1,2,4]triazolo[4,3-a]pyridin-3(2H)-one] | 59
21 | O=C([C@@H]1CCCc2nn(Cc3cncc(Br)c3)c(=O)n21)N1C[C@@H](F)[C@@H](F)C1 [Example 506, (5S)-2-[(5-Bromopyridin-3-yl)methyl]-5-{[(3R,4S)-3,4-difluoropyrrolidin-1-yl]carbonyl}-5,6,7,8-tetrahydro[1,2,4]triazolo[4,3-a]pyridin-3(2H)-one] | 1.2
22 | O=C(C1CC(C(F)(F)F)Cc2nn(Cc3cncc(Cl)c3)c(=O)n21)N1C[C@@H](F)[C@@H](F)C1 (single isomer, unassigned) [Example 269] | 4.2
